Laboratory results: US20120171274A1, “TRANSDERMAL PATCH” (priority 2006, published 2012)

What was measured:
[1] = Solvency of the active substance in monomer (visual inspection); assay type: physicochemical; parameters: key: Excellent: The active substance was not found to have been precipitated in the solution of active substance both immediately after the preparation and after the preservation for 7 days.; Good: The active substance was found to have been precipitated in the solution of active substance immediately after the preparation, but the active substance was not found to have been precipitated in the solution of active substance after the preservation for 7 days.; Poor: The active substance was found to have been precipitated in the solution of active substance both immediately after the preparation and after the preservation for 7 days; details: 3 parts active substance per 100 parts monomer, 25° C., 7 days
[2] = Residual rate of the active substance in monomer solution (HPLC); assay type: physicochemical; details: for Residual Rate of active substance, Immediately after Preparation: 3 parts per 100 parts monomer; for Residual Rate of active substance, after 7 Days: preserved at 25° C. for 7 days
[3] = monomer: 2-Ethylhexyl Methacrylate

SMILES	Solvency of active substance ([1]; monomer: 1-Vinyl-2-Pyrrolidone)	Solvency of active substance ([1]; monomer: 2-Ethylhexyl Acrylate)	Solvency of active substance [1, 3]	Solvency of active substance ([1]; monomer: Acrylic Acid)	Solvency of active substance ([1]; monomer: Butyl Acrylate)	Solvency of active substance ([1]; monomer: Butyl Methacrylate)	Solvency of active substance ([1]; monomer: Dodecyl Methacrylate)	Solvency of active substance ([1]; monomer: Ethyl Acrylate)	Residual Rate of active substance, Immediately after Preparation ([2]; monomer: 1-Vinyl-2-Pyrrolidone) [% by weight]	Residual Rate of active substance, after 7 Days ([2]; monomer: 1-Vinyl-2-Pyrrolidone) [% by weight]	Residual Rate of active substance, Immediately after Preparation ([2]; monomer: 2-Ethylhexyl Acrylate) [% by weight]	Residual Rate of active substance, after 7 Days ([2]; monomer: 2-Ethylhexyl Acrylate) [% by weight]	Residual Rate of active substance, Immediately after Preparation [2, 3] [% by weight]	Residual Rate of active substance, after 7 Days [2, 3] [% by weight]	Residual Rate of active substance, Immediately after Preparation ([2]; monomer: Acrylic Acid) [% by weight]	Residual Rate of active substance, after 7 Days ([2]; monomer: Acrylic Acid) [% by weight]	Residual Rate of active substance, Immediately after Preparation ([2]; monomer: Butyl Acrylate) [% by weight]	Residual Rate of active substance, after 7 Days ([2]; monomer: Butyl Acrylate) [% by weight]	Residual Rate of active substance, Immediately after Preparation ([2]; monomer: Butyl Methacrylate) [% by weight]	Residual Rate of active substance, after 7 Days ([2]; monomer: Butyl Methacrylate) [% by weight]	further results
COc1ccc2c(c1)c(CC(=O)O)c(C)n2C(=O)c1ccc(Cl)cc1 [IMT, indomethacin]	Excellent	Poor	Poor	Excellent	Poor	Poor	Poor	Poor	100	100	100	100	100	100	100	100	100	100	100	99	Residual Rate of active substance, Immediately after Preparation ([2]; monomer: Dodecyl Methacrylate): 100 % by weight; Residual Rate of active substance, after 7 Days ([2]; monomer: Dodecyl Methacrylate): 100 % by weight; Residual Rate of active substance, Immediately after Preparation ([2]; monomer: Ethyl Acrylate): 100 % by weight; Residual Rate of active substance, after 7 Days ([2]; monomer: Ethyl Acrylate): 99 % by weight
O=[N+]([O-])O[C@H]1CO[C@H]2[C@@H]1OC[C@H]2O[N+](=O)[O-] [ISDN, isosorbide dinitrate]	Excellent	Excellent	Excellent	Excellent	Excellent	Excellent	Excellent	Excellent	100	100	100	100	100	99	100	100	100	100	100	100	Residual Rate of active substance, Immediately after Preparation ([2]; monomer: Dodecyl Methacrylate): 100 % by weight; Residual Rate of active substance, after 7 Days ([2]; monomer: Dodecyl Methacrylate): 100 % by weight; Residual Rate of active substance, Immediately after Preparation ([2]; monomer: Ethyl Acrylate): 100 % by weight; Residual Rate of active substance, after 7 Days ([2]; monomer: Ethyl Acrylate): 100 % by weight
CC(C)(C)NCC(O)c1ccccc1Cl (stereo not drawn) [TB, tulobuterol]	Excellent	Excellent	Excellent	Excellent	Excellent	Excellent	Good	Excellent	100	100	100	88	100	100	100	96	100	81	100	100	Residual Rate of active substance, Immediately after Preparation ([2]; monomer: Dodecyl Methacrylate): 100 % by weight; Residual Rate of active substance, after 7 Days ([2]; monomer: Dodecyl Methacrylate): 100 % by weight; Residual Rate of active substance, Immediately after Preparation ([2]; monomer: Ethyl Acrylate): 100 % by weight; Residual Rate of active substance, after 7 Days ([2]; monomer: Ethyl Acrylate): 70 % by weight
